As a reminder, the EC50 is the concentration giving half of the maximal effect.

Where a name gives a salt, the structure may show the parent alone.

This assay deals with T1, human 5-HT4(a) (Homo sapiens, UniProt Q13639).
T1 construct: host or cells: GeneBlAzer HTR4-CRE-bla CHO-K1 cells
T1 sequence (Q13639 1-387 isoform Q13639-2): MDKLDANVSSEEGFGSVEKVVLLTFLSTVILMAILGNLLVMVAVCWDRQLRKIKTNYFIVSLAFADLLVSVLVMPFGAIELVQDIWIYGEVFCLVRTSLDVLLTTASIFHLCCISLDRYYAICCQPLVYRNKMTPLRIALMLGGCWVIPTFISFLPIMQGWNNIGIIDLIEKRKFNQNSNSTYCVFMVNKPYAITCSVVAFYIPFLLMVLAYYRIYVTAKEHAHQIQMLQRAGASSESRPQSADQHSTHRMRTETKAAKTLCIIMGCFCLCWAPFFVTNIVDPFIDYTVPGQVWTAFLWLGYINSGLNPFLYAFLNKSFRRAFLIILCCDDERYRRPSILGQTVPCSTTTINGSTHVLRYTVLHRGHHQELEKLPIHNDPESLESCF
In words: Evaluation of agonistic activity in CHO-K1 cells expressing human 5-HT4(a) (GeneBlAzer HTR4-CRE-bla, beta-lactamase reporter). It is filed as cell-based. The settings on record: 5 hours incubation, 8 concentrations. The procedure: Evaluation of Agonistic Activity in CHO-K1 Cells Expressing Human 5-HT4(a)
As CHO-K1 cells stably expressing human 5-HT4(a), we used the GeneBlAzer HTR4-CRE-bla CHO-K1 cells (Invitrogen corp.). The cells were cultured in DMEM medium supplemented with 10% bovine fetal serum (FBS), 25 mM HEPES (pH 7.4), 600 μg/ml Hygromycin B, 0.1 mM non-essential amino acids, 100 unit/ml penicillin and 100 μg/ml streptomycin under the condition of 37° C. and 5% CO2. Subcultures were performed three times per a week, each being at less than 80% confluence. At the previous day before treating test compounds, the cells were collected by using 0.5% trypsin/EDTA, and then diluted with a DMEM supplemented with 1% FBS, 25 mM HEPES and 0.1 mM non-essential amino acids into 3.125×10^5 cells/ml. 32 μl of the diluted cells were added into 384-well plate (10,000 cells/well) and then incubated overnight. The compounds to be used as a test material and a control drug were prepared as 500× of the various final treating concentrations of the drug with 100% DMSO, and then treated to the medium after diluting them to 100-folds to be 1% of the final DMSO concentration equally. After culturing overnight, 8 μl of the medium having 1% of DMSO was added into the cell-free control well and the non-stimulating control well, respectively. 8 μl of the control drug or the test material (which had been prepared by diluting 100-folds with the medium as mentioned in the above) having 1% of DMSO, were added to the respective remaining wells. After culturing in an incubator for 5 hours, the wells of the 384-plate were treated with the substrate solution (8 μl/well) prepared according to the vendor's instruction (i.e. Invitrogen's instruction), and then incubated in the dark room for additional 2 hours. Agonistic activities on 5-HT4 receptor were evaluated, on the basis of fluorescent values of the cleavage-products, which is generated cAMP-concentration dependently per equal time by beta-lactamase. After exciting to 410 nm of wavelength by using Genios Pro Fluorescence Detector, we measured the fluorescence values at two emission wavelengths (first wavelength: 465 nm, second wavelength: 535 nm). Data were analyzed on the basis of the ratio of fluorescence intensities of each well at the respective wavelengths. For all plates, the concentrations-response curve (1 pM-100 nM) of the control drug (Tegaserod) was included. Each EC50 values of the test compounds were calculated by non-linear regression analysis using GraphPad Prism program, based on the concentration-reactivity values according to 8-different concentrations of the test compounds.
Consider `CC(=O)N[C@@H]1CCCN(c2nc(Nc3ccc(N)c([N+](=O)[O-])c3)nc3c2CCC3)C1` [Example 198, (R)—N-(1-[2-{(4-amino-3-nitrophenyl)amino}-6,7-dihydro-5H-cyclopenta[d]pyrimidin-4-yl]piperidin-3-yl}acetamide hydrochloride], for which the midpoint of the response, the EC50, lay at 0.01 nM.
In the case of `N#Cc1cc(N)cc(Nc2nc3c(c(N4CCC[C@@H](N)C4)n2)CCC3)c1` [Example 199, (R)-3-amino-5-[{4-(3-aminopiperidin-1-yl)-6,7-dihydro-5H-cyclopenta[d]pyrimidin-2-yl}amino]benzonitrile dihydrochloride], the EC50 was 0.02 nM. This EC50 lies about 2-fold higher than the previous one.
Take `CN[C@@H]1CCCN(c2nc(Nc3cc(N)cc(C#N)c3)nc3c2CCC3)C1` [Example 204, (R)-3-amino-5-([4-{3-(methylamino)piperidin-1-yl}-6,7-dihydro-5H-cyclopenta[d]pyrimidin-2-yl]amino)benzonitrile dihydrochloride]: the EC50 was found to be 0.01 nM.
The figure for `CN[C@@H]1CCCN(c2nc(Nc3cc(N)cc(C(F)(F)F)c3)nc3c2CCCC3)C1` [Example 213, (R)—N^1-[4-{3-(methylamino)piperidin-1-yl}-5,6,7,8-tetrahydroquinazolin-2-yl]-5-(trifluoromethyl)benzene-1,3-diamine dihydrochloride] is 0.016 nM; for `CNC(=O)[C@@H]1CCCN(c2nc(Nc3ccc(N)c([N+](=O)[O-])c3)nc3c2CCC3)C1` [Example 224, (R)-1-[2-{(4-amino-3-nitrophenyl)amino}-6,7-dihydro-5H-cyclopenta[d]pyrimidin-4-yl]-N-methylpiperidine-3-carboxamide hydrochloride] it is 0.0087 nM.

The values above are taken from patent US20170152241A9, “BICYCLIC DERIVATIVE CONTAINING PYRIMIDINE RING, AND PREPARATION METHOD THEREFOR” (YUHAN CORPORATION, priority 2013, published 2017).
